Measurements from patent US20180172683A1, “METHODS FOR ANALYZING THE INTERACTION BETWEEN A TARGET PROTEIN AND A LIGAND” (UNIVERSITY OF SOUTHERN CALIFORNIA, priority 2015, published 2018).
Like-named read-outs stand apart in the source and are kept apart here. Peptide text beside a SMILES is read from it. * marks the point of attachment. Biotin = O=C1N[C@H]2[C@H](CS[C@H]2CCCCC(=O)*)N1

Key:
Bcl-xL [1] = biological target: T1, Bcl-xL (Homo sapiens, UniProt Q07817); assay: Equilibrium immunoassays (ELISA and AMMP data combined), Kd of ligands for Bcl-xL; assay type: binding; conditions: for Kd: Kd Determined Using Known [L]0, Monovalent equilibrium model, ELISA and AMMP data; for Kd / Ratio of Fit [L]0 to Known [L]0: mean ± standard error; for Ratio of Fit [L]0 to Known [L]0: simultaneous fit of Kd and [L]0
T1 construct: The gene for the first 209 amino acids of Bcl-xL; made in house; host or cells: E. coli BL21(DE3), pET24a vector
T1 sequence (Q07817 1-209 limits assumed): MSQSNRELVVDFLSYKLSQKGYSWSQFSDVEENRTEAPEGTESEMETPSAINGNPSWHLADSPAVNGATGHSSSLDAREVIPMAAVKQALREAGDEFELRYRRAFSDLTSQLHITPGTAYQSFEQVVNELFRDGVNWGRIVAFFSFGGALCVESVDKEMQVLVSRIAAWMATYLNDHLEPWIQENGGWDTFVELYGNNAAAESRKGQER
Description: Sample Preparation. A set of serially diluted Bcl-xL standards, at 2× the desired concentration, were made in sample buffer. For each ligand to be tested (such as peptide ligands), a set of dilutions at 2× the desired concentration was also prepared. The Bcl-xL samples were either mixed 1:1 with sample buffer (standards) or ligands (samples), and allowed to incubate at room temperature for 6 days. After the incubation, the standards and samples were analyzed using ELISA or the ViBE BioAnalyzer (FIG. 1).
ELISA Assays. ELISA plates were incubated overnight at 4° C. with 1.5 nmol of streptavidin (for D1 or Bcl-xL capture ligands) or 54H6 mAb in 1×PBS. Plates were washed 3× with wash buffer (1×PBS+0.1% (v/v) Tween-20) and blocked with 1×PBS+5% (w/v) BSA for two hours. For the D1 or Bcl-xL capture ligands, 100 μL of a 30 nM solution of the reagents was added to wells and incubated for 1 hour. This step was skipped for the 54H6 mAb capture ligand (already immobilized on the plate). After the capture ligand incubation, 100 μL of sample or standards were added in each well, and incubated for 1 hour at room temperature. Plates were washed, incubated with HRP-conjugated probe antibody (such as anti-HIS tag antibody) in sample buffer for 1 hour, washed, and incubated with TMB substrate (Thermo Scientific). Reactions were stopped after approximately 10 minutes with 2 M sulfuric acid, and the absorbance at 450 nm was measured via a plate reader (Molecular Devices). The ligand of interest, capture ligand, target protein, and probe ligand used in example ELISA assays performed are highlighted in the table below.
AMMP Assays. For the AMMP assays, 90 μL of each sample or standards was incubated with 30 μL of magnetic beads (12 μg of beads/mL) and fluorescein-labeled antibody (8 nM) in sample buffer for 1 hour. The experiment's run buffer was 1×PBS+1% (v/v) Tween-20+1% (v/v) heat-treated FBS (Invitrogen; FBS was heat treated for 15 minutes at 65° C. and filtered). BioScale Universal Detection Cartridges were used in performing all of the assays. The device was used per the manufacturer's instructions. The ligand of interest, capture ligand, target protein, and probe ligand used in example AMMP assays performed are highlighted in the table below.
Monovalent and Divalent Analysis. The data for both sets of target concentrations were simultaneously fit for Kd (in the Kd only fit) or Kd and Mo. The data was fitted to the equilibrium model using the lowest absolute deviation method, by varying either only Kd or both Kd and [L]0 simultaneously. The monovalent assay fitting was done by Excel Solver (GRG Non-Lin method) using a set of five initial values. The set of values which provided the lowest error after the fitting were chosen as the final values. For the divalent assays, the fitting was performed by MATLAB's fminsearch function and a set of 10 initial values for Kd1, Kd2, and [L]0. […] For the divalent reverse assay, an extra parameter, Cf, was also determined by fitting (FIG. 7 Reverse Assay).
Enzymatic Kd Calculation Assay. The Kd values of ligands of interest were determined using a protocol modified from Friguet et al., Journal of immunological methods, 77, 305-319 (1985). The samples were prepared and analyzed by ELISA assay in a similar process as described above. The OD450 for the standards and their concentration values were fit to a four parameter logistic curve (standard curve). The concentration of the free Bcl-xL in solution (responsible for the signal) for each sample was calculated using the standard curve, and converted into percent of Bcl-xL bound by ligand in solution.

Bcl-xL [2] = biological target: T1, Bcl-xL; assay: Radiolabeled off-rate assay on immobilized Bcl-xL; assay type: binding
Description: Radiolabeled Off-Rate Assay. The DNA sequences coding for the peptides were ordered from Integrated DNA Technologies (IDT). Each DNA construct contained a T7 RNA Polymerase promoter, and a 5′ deletion mutant of the Tobacco Mosaic Virus (ΔTMV). The C-terminal portion of the peptides were elongated with a flexible serine-glycine linker (six amino acids long) and an HA tag. After gel purification using urea-PAGE, the DNA sequences were PCR amplified using Taq polymerase and in vitro transcribed into mRNA using T7 RNA polymerase. After transcription, the mRNA was urea-PAGE purified and resuspended in deionized water to a final concentration of 30 μM.
The samples were in vitro translated at 30° C. for 1 hour in the translation solution—150 mM KOAc, 750 μM MgCl2, 2 μM mRNA, 1× translation mix (20 mM Hepes-KOH pH 7.6, 100 mM creatine phosphate, 2 mM DTT, and 312.5 μM of each amino acid excluding methionine), ^35S-labeled methionine (Perkin Elmer; 20 μCi for each 25 μL of translation), and 60% (v/v) rabbit reticulocyte lysate. Radiolabeled peptides were purified using magnetic HA beads (Life Technologies) and eluted with 100 μL, 50 mM NaOH, then immediately neutralized with 20 μL of 1 M Tris-HCl, pH 8.0.
The radiolabeled peptides were allowed to bind to 30 pmol immobilized Bcl-xL for 1 hour in sample buffer (1×PBS, 1% (w/v) BSA, 0.1% (v/v) Tween 20, 10 μM biotin). The beads were magnetically separated, and washed 5× with sample buffer. The beads were resuspended in 1 mL of sample buffer containing 3 μM non-biotinylated Bcl-xL (˜100× molar excess relative to immobilized biotinylated Bcl-xL). At various time points, 100 μL of slurry was removed and the beads were magnetically separated and washed. The percent remaining at each time point was determined by dividing the counts per minute (cpm) on beads by total cpm (beads+washes). The peptide off-rate was determined by an exponential fit of the Percent counts on beads vs. Time (s).
The peptide ligands were made using a C-terminal HA tag, and affinity purified.

[3] = in vitro translated radiolabeled peptides with C-terminal HA tag, read-out: Peptide koff
[4] = radiolabeled peptide-mRNA fusions bound to immobilized Bcl-xL, read-out: koff

| SMILES | kon (Bcl-xL [1]) [M⁻¹ s⁻¹] | Kd (Bcl-xL [1]) [nM] | Ratio of Fit [L]0 to Known [L]0 (Bcl-xL [1]) | koff (Bcl-xL [2]; [3]) [s⁻¹] | koff (Bcl-xL [2]; [4]) [s⁻¹] |
| --- | --- | --- | --- | --- | --- |
| CC[C@H](C)[C@H](NC(=O)[C@H](C)NC(=O)[C@@H](NC(=O)[C@@H](N)CCSC)[C@@H](C)CC)C(=O)N[C@@H](CO)C(=O)N[C@H](C(=O)N[C@H](C(=O)N[C@@H](Cc1ccc(O)cc1)C(=O)N[C@@H](CC(N)=O)C(=O)N[C@@H](Cc1ccc(O)cc1)C(=O)N[C@@H](CCCCN)C(=O)N[C@@H](CCCCN)C(=O)N[C@@H](C)C(=O)N[C@@H](C)C(=O)N[C@@H](CC(=O)O)C(=O)N[C@@H](Cc1c[nH]cn1)C(=O)N[C@@H](Cc1ccc(O)cc1)C(=O)N[C@@H](C)C(=O)N[C@@H](CCSC)C(=O)N[C@H](C(=O)N[C@@H](CCCCN)C(=O)NCC(=O)N[C@@H](CO)C(=O)N[C@@H](CCCCNC(=O)CCCC[C@@H]1SC[C@@H]2NC(=O)N[C@@H]21)C(N)=O)[C@@H](C)O)[C@@H](C)CC)[C@@H](C)O [D1] (H-MIAISTIYNYKKAADHYAMTKGSK(Biotin)-NH2) | 240000 | 0.0085 ± 0.002 | 109% ± 7% | 2e-06 | 2e-06 |
| CC[C@H](C)[C@H](NC(=O)[C@@H](NC(=O)[C@@H](NC(=O)[C@@H](NC(=O)[C@H](CCC(=O)O)NC(=O)[C@@H](NC(=O)[C@@H](N)CCSC)[C@@H](C)CC)[C@@H](C)O)[C@@H](C)CC)[C@@H](C)O)C(=O)N[C@@H](Cc1ccc(O)cc1)C(=O)N[C@@H](CC(N)=O)C(=O)N[C@@H](Cc1ccc(O)cc1)C(=O)N[C@@H](CCCCN)C(=O)N[C@@H](CCCCN)C(=O)N[C@@H](C)C(=O)N[C@@H](C)C(=O)N[C@@H](CC(=O)O)C(=O)N[C@@H](Cc1c[nH]cn1)C(=O)N[C@@H](Cc1ccccc1)C(=O)N[C@@H](CO)C(=O)N[C@@H](CCSC)C(=O)N[C@@H](CO)C(=O)N[C@@H](CCSC)C(=O)NCC(=O)N[C@@H](CO)C(=O)N[C@@H](CCCCNC(=O)CCCC[C@@H]1SC[C@@H]2NC(=O)N[C@@H]21)C(N)=O [E1] (H-MIETITIYNYKKAADHFSMSMGSK(Biotin)-NH2) | 310000 | 0.039 ± 0.006 | 88% ± 10% | 7.4e-06 | 1.2e-05 |
